Results: patent US20260250257A1, “ANTIBACTERIAL AND SYNERGISTIC ACTIVE COMPOUND AND USE THEREOF” (EAST CHINA UNIVERSITY OF SCIENCE AND TECHNOLOGY, priority 2023, published 2026)
Converted amounts (≈) assume the structure as drawn.

What was measured:
[1] = tested on: clinical strains of Acinetobacter baumannii; test: MIC of polymyxin E against polymyxin E-resistant clinical strains; assay type: cell-based
Source text: (§1) Compound I-82 of the present invention was used as the representative compound and tested against clinical strains of Acinetobacter baumannii. […] The selected A. baumannii strains were isolated from hospital clinical samples and preserved in the laboratory for research purposes.

[2] = tested on: ATCC19606 strains (Acinetobacter baumannii); test: In vivo synergistic bactericidal activity with polymyxin E, mouse bacteremia model; parameters: species or system Balb/c mice; conditions: for survival rate / synergistic effects with Polymyxin E in vivo: Polymyxin E 0.5 mg/kg + compound 16 mg/kg, Balb/c mice infected with ATCC19606; for survival rate: intraperitoneal
Procedure: Representative compounds I-14 and I-82 were tested for their in vivo synergistic bactericidal activities when combined with polymyxin E. The specific method is as follows:
Normal Balb/c mice (6-8 weeks old) were used, and the animals were randomly divided into four groups (5 mice per group): • I: Control group • II: Polymyxin E at 0.5 mg/kg body weight • III: Polymyxin E at 0.5 mg/kg body weight+Compound I-14 at 16 mg/kg • IV: Polymyxin E at 0.5 mg/kg body weight+Compound I-82 at 16 mg/kg
Freshly cultured ATCC19606 strains (logarithmic growth phase) were washed with saline, adjusted to an OD600 of ~1.0, and mixed at 1:1 (v/v) with 10% porcine mucin. Each mouse was intraperitoneally administered 500 μl of the mixture. 1 hour later, an intraperitoneal injection was given again, with the control group receiving only saline.

[3] = tested on: ATCC19606 strain (Acinetobacter baumannii); test: Broth microdilution, antibacterial activity of the compound used alone; assay type: cell-based; conditions: read-out: Antibacterial activity of the compound of Formula I, ATCC19606
Source text: (§2) The broth microdilution method was used to test the antibacterial effects of the compounds of the present invention against various Gram-negative bacterial strains when used alone.

[4] = tested on: ATCC13883 strain (Klebsiella pneumoniae); test: as above; assay type: cell-based; conditions: read-out: Antibacterial activity of the compound of Formula I, ATCC13883
Source text: as §2

[5] = tested on: ATCC9027 strain (Pseudomonas aeruginosa); test: as above; assay type: cell-based; conditions: read-out: Antibacterial activity of the compound of Formula I, ATCC9027
Source text: as §2

[6] = tested on: ATCC25922 strain (Escherichia coli); test: as above; assay type: cell-based; conditions: read-out: Antibacterial activity of the compound of Formula I, ATCC25922
Source text: as §2

[7] = tested on: ATCC19606 strain (Acinetobacter baumannii); test: Checkerboard antibacterial synergistic activity test with polymyxin E (FIC); assay type: cell-based; parameters: key: FIC≤0.5 synergy; 0.5–1 additive; 1–2 indifferent; ≥2 antagonism; conditions: combined with polymyxin E
How it was run: (§3)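 Interaction is reported as the fractional inhibitory concentration, read after 16 h of growth at 37° C. in Mueller-Hinton broth. Each well paired one level of polymyxin E (prepared at 16 to 0.015 μg/ml) with one of the test agent (prepared at 256 to 4 μg/ml) before bacteria were added.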

[8] = tested on: ATCC13883 strain (Klebsiella pneumoniae); test: as above; assay type: cell-based; parameters: key: FIC≤0.5 synergy; 0.5–1 additive; 1–2 indifferent; ≥2 antagonism; conditions: combined with polymyxin E
How it was run: as §3

[9] = tested on: ATCC9027 strain (Pseudomonas aeruginosa); test: as above; assay type: cell-based; parameters: key: FIC≤0.5 synergy; 0.5–1 additive; 1–2 indifferent; ≥2 antagonism; conditions: combined with polymyxin E
How it was run: as §3

[10] = tested on: ATCC25922 strain (Escherichia coli); test: as above; assay type: cell-based; parameters: key: FIC≤0.5 synergy; 0.5–1 additive; 1–2 indifferent; ≥2 antagonism; conditions: combined with polymyxin E
How it was run: as §3

[11] = tested on: clinical strains of Acinetobacter baumannii; test: Synergistic effect (FIC) on inhibiting clinical strains of Acinetobacter baumannii; assay type: cell-based; conditions: for FIC: with polymyxin E
Procedure: Polymyxin E was diluted in sterile MH broth medium to concentrations of 16, 8, 4, 2, 1, 0.5, 0.25, 0.125, 0.0625, 0.031, and 0.015 μg/ml, and the drug to be tested was diluted to concentrations of 256, 128, 64, 32, 16, 8, and 4 μg/ml. According to the checkerboard method, combinations of the drug to be tested and polymyxin at different concentrations in ascending order were placed into a 96-well plate, and corresponding blank control groups were set up. 50 μl of the drug solution was added to each well, then 100 μl of bacterial liquid was added, and incubated in a 37° C. incubator for 16 hours. […] Calculation and judgment criteria:
Fractional Inhibitory Concentration (FIC) is calculated as follows: […]
Judgment criteria: FIC≤0.5: synergistic effect; 0.5<FIC<1: additive effect; 1<FIC<2: indifferent effect; FIC≥2: antagonistic effect.
as §1

Compound: polymyxin E
- MIC ([1]; strain aba39): 64 µg/mL
- MIC ([1]; strain aba pmrA): 256 µg/mL
- therapeutic effect on bacteremia in mice ([2]; Polymyxin E alone 0.5 mg/kg, Day 5, all mice died): no therapeutic effects

Compound: CC(C)(C)c1cc(-c2csc(N=C(N)N)n2)cc(C(C)(C)C)c1O [Compound I-14]
- MIC [3]: 256 µg/mL (≈ 739 µM)
- MIC [4]: 256 µg/mL (≈ 739 µM)
- MIC [5]: 256 µg/mL (≈ 739 µM)
- MIC [6]: 256 µg/mL (≈ 739 µM)
- Synergistic activity (FIC value) ATCC19606 [7]: 0.13
- Synergistic activity (FIC value) ATCC13883 [8]: 0.31
- Synergistic activity (FIC value) ATCC9027 [9]: 0.53
- Synergistic activity (FIC value) ATCC25922 [10]: 0.38
- survival rate ([2]; Day 5): 80%
- synergistic effects with Polymyxin E in vivo [2]: synergistic effects

Compound: Cc1ccc(Oc2ccccc2-c2csc(N=C(N)N)n2)c(C)c1 [Compound I-82]
- Synergistic effects against clinical strains of A. baumannii ([11]; clinical strains with various resistance profiles): broad-spectrum synergistic effects
- FIC ([11]; strain aba 30): 0.08
- FIC ([11]; strain aba 39 (polymyxin E-resistant)): 0.13
- FIC ([11]; strain aba 1611): 0.09
- FIC ([11]; strain aba 1613): 0.13
- FIC ([11]; strain aba 1617): 0.08
- FIC ([11]; strain aba 1638): 0.02
- FIC ([11]; strain aba 1645): 0.16
- FIC ([11]; strain aba 4201): 0.09
- FIC ([11]; strain aba 4230): 0.06
- FIC ([11]; strain aba 6359): 0.09
- FIC ([11]; strain aba 6380): 0.14
- FIC ([11]; strain aba 6382): 0.09
- FIC ([11]; strain aba 6410): 0.06
- FIC ([11]; strain aba mia): 0.05
- FIC ([11]; strain aba pmrA (polymyxin E-resistant)): 0.16
- MIC [3]: 256 µg/mL (≈ 756 µM)
- MIC [4]: 256 µg/mL (≈ 756 µM)
- MIC [5]: 256 µg/mL (≈ 756 µM)
- MIC [6]: 256 µg/mL (≈ 756 µM)
- Synergistic activity (FIC value) ATCC19606 [7]: 0.03
- Synergistic activity (FIC value) ATCC13883 [8]: 0.16
- Synergistic activity (FIC value) ATCC9027 [9]: 0.28
- Synergistic activity (FIC value) ATCC25922 [10]: 0.18
- survival rate ([2]; Day 5): above 60%
- synergistic effects with Polymyxin E in vivo [2]: synergistic effects
